Laboratory results as given in US9259408B2, “Use of DHA, EPA or DHA-derived EPA for treating a pathology associated with cellular oxidative damage” (Brudy Technology S.L., priority 2005, dated 2016).

How the values were obtained:
[1] = test system: Foreskin cells; experiment: Lipidic peroxides (TBARS/MDA) in Foreskin cells; assay type: cell-based, human; details: 40 mM AAPH; 50 μM DHA-TG
Method: The measurement of malonildialdehyde (MDA) on cell lysates was used as a marker of lipidic peroxidation by UV-Vis spectrophotometry. The MDA and the 4-hydroxyalkenals (HAE) are products derived from the peroxidation of polyunsaturated fatty acids and related esters. Direct measurements of these aldehydes constitutes a convenient index of lipidic peroxidation. A chromogenic reagent (N-methyl-2-phenyl-indole in acetonitrile) which reacts with the MDA at 45° C. was employed, using the commercial lipidic peroxidation kit from Calbiochem (No. 437634). The condensation of one molecule of MDA with two molecules of the chromogenic reagent gives a stable chromophore with maximum absorbance at 586 nm, with the detection limit being 0.1 μM. The induction was carried out for 6 h with 40 mM AAPH and 24 hours of latency. The cells (10^7 cells/mL) were lysed by means of cycles of freezing and thawing in liquid N2. The samples were fractionated in order to measure MDA and protein. The results were expressed in μM of MDA/mg of protein.

[2] = test system: Foreskin cells (undifferentiated epidermal fibroblasts, CRL-2076); experiment: ROS generation in Foreskin cells under xanthine/xanthine oxidase oxidative stress (CDCFDA); assay type: cell-based, human; details: 100 μM Vitamin E
Method: (§1) The cellular models used were Foreskin cells (undifferentiated epidermal fibroblasts, CRL-2076) and ARPE-19 cells (retina pigmentary epithelial cells, CRL-2302) obtained from the American Type Culture Collection. The cell cultures were kept in suitable growth conditions of temperature (37° C.), CO2 concentration (5%) and humidity (95%) in an incubator specially designed for this purpose. The ARPE-19 cells were maintained in growth up to confluence of 0.3×10^4 cells/cm^2 in culture flasks with DMEM-F12 medium (Biological Industries) supplemented with 10% bovine foetal serum, penicillin antibiotics (100 U/mL), streptomycin (100 μg/mL) and glutamine (Biological Industries). […]
(§2) The ROS level was measured in primary cultures of human skin CRL-2076 fibroblasts and in ARPE-19 retinal epithelial cells by employing the fluorimetric technique using dihydrorodamine 123 (DHR123, Molecular Probes) and 2,7-dichlorofluorescein diacetate (H2DCFDA, Molecular Probes) as fluorescent probes in a continuous system measuring every 30 min until 180 minutes. […] The fluorescence of the oxidised probes (2,7-dichlorofluorescein and rodamine 123) was measured in a Mithras fluorescence reader at an excitation wavelength of 488 nm and an emission wavelength of 525 nm in function of the time. […]

[3] = test system: Foreskin cells; experiment: Superoxide anion generation (luminol chemiluminescence) in Foreskin cells; assay type: cell-based, human; details: 40 mM AAPH, with or without DHA; 10 mM Tyron or 0.1875 UA/μl exogenous SOD
Method: Direct measurement of the superoxide anion was carried out by means of the chemiluminescence technique on microplate measured by luminol (Calbiochem, No. 574590). Chemiluminescence for detecting the superoxide anion is a technique used due to its potential for gaining access to all the intracellular sites of superoxide generation, due to the high specificity of the reaction with luminol, the minimal intracellular toxicity and the increased sensitivity in relation to other chemical techniques. It is based on the superoxide anion oxidising luminol in a reaction that produces photons of light which are quickly measured on a standard illuminometer. In our tests we used a chemiluminescence reader on microplate from ELISA, MITHRAS and furthermore, given the short half-life of the radical, an enhancer was used to increase the sensitivity of the test and amplify the response. […] The chemiluminescence measurement in the cells submitted to the AAPH oxidative stress inducing treatment was analysed every […] for a total time of 4100 seconds, at a frequency of 120 sec/cycle. […]

[4] = test system: ARPE-19 cells (retina pigmentary epithelial cells, CRL-2302); experiment: ROS generation in ARPE-19 cells under AAPH oxidative stress (DHR123/H2DCFDA); assay type: cell-based
Method: as §1, §2

## CC/C=C\C/C=C\C/C=C\C/C=C\C/C=C\C/C=C\CCC(=O)O [DHA, docosahexaenoic acid]
[1]
  protection against lipidic peroxides (TBARS): 48%

## vitamin E [reference compound]
[2]
  inhibition of cellular oxidation: 30%

## O=S(=O)(O)c1cc(O)c(O)c(S(=O)(=O)O)c1 [Tyron, 4,5-dihydroxy-1,3-benzene disulphonic acid, reference compound]
[3]
  production of superoxide anion in cells stressed with AAPH: totally inhibited

## CCCCS(=N)(=O)CCC(N)C(=O)O (stereo not shown) [BSO, Buthionine sulfoximine, reference compound]
[4]
  effect of addition of BSO on the protective effect of DHA: eliminates the protective effect of DHA
